Laboratory results from patent US11559586B2, “Nanoparticles for treatment of choroidal neovascularization and other indications” (Children's Medical Center Corporation, priority 2018, dated 2023).

Tested on: laser-induced choroidal neovascularization
Assay: Therapeutic study in laser-induced choroidal neovascularization model, CNV neovessel area
Format: in vivo, C57BL/6 mice
Settings: free drug, IV day 1, 3, 5; equal dose of doxorubicin
Source text: Therapeutic effects of phototriggered activation of nanoparticles in CNV. The mouse model of laser-induced choroidal neovascularization mimics the neovascular aspect of wet AMD, and has been used extensively in studies of that disease. However, unlike the chronic development of wet AMD in human, the laser-induced mouse CNV model is acute—the optimum time point to assess neovessels in this model is between day 7 and day 14. After 14 to 21 days, spontaneous regression begins and lesion size decreases. The dosing regimen in this example was determined accordingly: treatment was initiated on day 7 when the lesions had formed, and its effects were assessed before spontaneous regression would begin on day 14.
In the in vivo therapeutic study, 200 microliters of PBS containing 1 mg of NP-[CPP]-doxo encapsulating 0.02 mg doxorubicin were injected via tail vein one week after photocoagulation (day 1 of treatment), and additional injections were given on day 3 and day 5. […] (The three drug-loaded groups contained equal doses of doxorubicin.) On day 7, mice were euthanized, the size of CNV lesions were assessed by fluorescent imaging of choroidal flat-mounts stained with isolectin GS-IB4 (which labels endothelial cells). […]

## COc1cccc2c1C(=O)c1c(O)c3c(c(O)c1C2=O)C[C@@](O)(C(=O)CO)C[C@@H]3O[C@H]1C[C@H](N)[C@H](O)[C@H](C)O1 [doxorubicin]
  reduction in neovessel area compared to PBS group: 26.8%
